These results are taken from patent publication US9149445B2, “Inhibition of glycerol-3-phosphate acyltransferase (GPAT) and associated enzymes for treatment of viral infections” (THE TRUSTEES OF PRINCETON UNIVERSITY, priority 2009, dated 2015).

Bounds are passed on as bounds.

In one assay the test system is human cytomegalovirus. The assay is described as follows: HCMV late protein expression by Western blot in infected fibroblasts. It counts as cell-based. The following applies: intermediate and high concentrations (5μ/ml and 10μ/ml); 96 hours after infection; multiplicity 3.0 TCID50 units/cell; compared to tubulin and IE-1. The method, then: FIG. 3. Dose-dependent Inhibition of Human Cytomegalovirus Late Protein Expression by Inhibition of GPAT. Serum-starved fibroblasts were infected with human cytomegalovirus at a multiplicity of 3.0 TCID50 units/cell. After adsorption for 1 h, cultures were re-fed with serum-free medium containing the indicated concentrations of FAS 115 or with DMSO, the solvent used to dissolve FAS 115. Cells were harvested at 96 hours after infection and viral protein expression was assessed by Western blot. IE-1 is a viral protein expressed immediately early during infection. pp65 and pp28 are viral proteins expressed late during HCMV infection. Tubulin is a loading control.
Serum-starved fibroblasts were infected with human cytomegalovirus at a multiplicity of 3.0 TCID50 units/cell. After adsorption for 1 h, cultures were re-fed with serum-free medium containing 2.5μ/ml, 5μ/ml and 10μ/ml of FAS 115 or with DMSO, the solvent used to dissolve FAS 115. Cells were harvested at 96 hours after infection and viral protein expression was assessed by Western blot. IE-1 is a viral protein expressed during the immediate-early phase of infection. pp65 and pp28 are viral proteins expressed late during HCMV infection. Tubulin is a loading control. […] (FIG. 3).

The test system of the next assay is GPAT. The following applies: cited from earlier work.
A further assay concerns HCMV. The assay is described as follows: HCMV replication in serum-starved fibroblasts, infectious progeny by TCID50 assay. Format: cell-based, human cytomegalovirus. The following applies: multiplicity 0.1 TCID50 units per cell. Here is the method:
FIG. 2. Inhibition of HCMV Replication by Inhibition of GPAT. Serum-starved fibroblasts were infected with HCMV at a multiplicity of 0.1 TCID50 units per cell. After adsorption for 1 h, cultures were re-fed with serum-free medium containing concentrations of 2.5 μg/ml, 5 μg/ml and 10 μg/ml of FAS 115 or with DMSO, the solvent used to dissolve FAS 115. Medium was assayed at 0, 2, 4, 6, 8, 10 and 12 days after infection and the production of infectious progeny was determined by TCID50 assay on fibroblasts.
Serum-starved fibroblasts were infected with HCMV at a multiplicity of 0.1 TCID50 units per cell. After adsorption for 1 h, cultures were re-fed with serum-free medium containing concentrations of 2.5μ/ml, 5μ/ml and 10μ/ml of FAS 115 or with DMSO, the solvent used to dissolve FAS 115. The medium was assayed at 0, 2, 4, 6, 8, 10 and 12 days after infection and the production of infectious progeny was determined by TCID50 assay on fibroblasts. […] At the highest concentration, production of virus was not observed on day 12 after infection. (FIG. 2).
Cell Lines, Viral Stock. Low passage fibroblasts (passage 6-8) were cultured in a medium containing 10% fetal bovine serum. Bacterial artificial chromosome-derived HCMV AD 169 strain (BADWT) was propagated in human foreskin fibroblasts (HFFs), concentrated via a 20% sorbitol cushion, and resuspended as a stock in serum-free media.

A further assay relates to herpes simplex virus-1. Kind of assay: HSV-1 replication in serum-starved fibroblasts, infectious progeny by TCID50 assay. The following applies: multiplicity 0.01 TCID50 units/cell. It counts as cell-based. Here is the method:
FIG. 4. Dose-dependent Inhibition of Herpes Simplex Virus-1 Replication by Inhibition of GPAT. Serum-starved fibroblasts were infected with herpes simplex virus-1 at a multiplicity of 0.01 TCID50 units/cell. After adsorption for 1 h, cultures were re-fed with serum-free medium containing the indicated concentrations of FAS 115 or with DMSO, the solvent used to dissolve FAS 115. Medium was harvested at the indicated times after infection and the production of infectious progeny was determined by TCID50 assay on fibroblasts.
Serum-starved fibroblasts were infected with herpes simplex virus-1 at a multiplicity of 0.01 TCID50 units/cell. After adsorption for 1 h, cultures were re-fed with serum-free medium containing concentrations of 2.5μ/ml, 5μ/ml and 10μ/ml of FAS 115 of FAS 115 or with DMSO, the solvent used to dissolve FAS 115. The medium was assayed daily for five days and the production of infectious progeny was determined by TCID50 assay on fibroblasts. […] At higher concentrations, the concentration of infections virus was reduced to 1 TCID50 unit/ml or less after 5 days. (FIG. 4).

For the next assay, the target named is mTOR (Homo sapiens, UniProt P42345). The following applies: selective mTOR inhibitors; cited from earlier work.
Assay [1] relates to panel of 140 protein kinases. The following applies: cited from earlier work.

Consider `CCCCCCCC[C@@]1(C)SC(=O)C=C1OC(=O)OCC` [FAS 115], for which, in the assay on human cytomegalovirus, the “expression of pp28” value is “noticeably reduced” and the “expression of pp65” value is “noticeably reduced”. Also, the “inhibition of GPAT” value with GPAT is “inhibits GPAT”. The production of virus result with HCMV (highest concentration (10μ/ml), day 12 after infection) is reported as “not observed”. For the same molecule, the viral titers reduced result in the assay with HCMV (lowest FAS 115 concentration (2.5μ/ml), versus DMSO) is “about an order of magnitude”. The “concentration of infections virus” value with herpes simplex virus-1 (higher concentrations (5μ/ml, 10μ/ml), after 5 days) is reported as at most 1 TCID50 unit/ml. Moreover, the “viral titers lower than in untreated cells” value with herpes simplex virus-1 (lowest FAS 115 concentration (2.5μ/ml)) is recorded as “about an order of magnitude”.
Take `c1cncc(CN2CCC(n3ncc4c(N5CCOCC5)nc(-c5ccc6[nH]ccc6c5)nc43)CC2)c1` [WAY-600]: the IC50 at mTOR was 9 nM.
For the molecule `COC(=O)Nc1ccc(-c2nc(N3CCOCC3)c3cnn(C4CCN(C(=O)OC)CC4)c3n2)cc1` [WYE354], the IC50 on mTOR is 5 nM.
On to `CNC(=O)Nc1ccc(-c2nc(N3CC4CCC(C3)O4)c3cnn(C4CCC5(CC4)OCCO5)c3n2)cc1` [WYE-125132], for which the IC50 on mTOR is 0.19 nM.
Take `Cc1c(C(=O)N2CCOc3ccc(-c4ccc(N)nc4)cc3C2)ccc(S(C)(=O)=O)c1F` [XL388]: the IC50 in assay [1] is over 3000 nM.
